In ChEMBL document CHEMBL1201862, “PubChem BioAssay data set” (2004):
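A five-concentration, 48-hour dose response in 96-well plates underlies each endpoint, interpolated linearly between surrounding concentrations. GI50 is the concentration that inhibits growth by half.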 Active and inactive are the calls of the source. No stated cut-off is given here; in the data, active = GI50 up to about 1.1 µM and inactive = higher.

Tests used:
Experiment in all cases: inhibition of tumour cell growth, NCI panel, 48 h
[1] = tested on: SK-MEL-5
[2] = tested on: OVCAR-4
[3] = tested on: NCI/ADR-RES
[4] = tested on: NCI-H522
[5] = tested on: HL-60
[6] = tested on: UACC-257
[7] = tested on: UACC-62
[8] = tested on: K562
[9] = tested on: HT-29
[10] = tested on: M19-MEL
[11] = tested on: HOP-62
[12] = tested on: NCI-H460
[13] = tested on: U-251
[14] = tested on: CAKI-1
[15] = tested on: HCT-116
[16] = tested on: DMS-273
[17] = tested on: MOLT-4
[18] = tested on: RPMI-8226
[19] = tested on: HOP-18
[20] = tested on: KM-20L2
[21] = tested on: XF498
[22] = tested on: OVCAR-8
[23] = tested on: SF-295
[24] = tested on: SNB-78
[25] = tested on: IGROV-1
[26] = tested on: OVCAR-5
[27] = tested on: SNB-75
[28] = tested on: UO-31
[29] = tested on: SN12C
[30] = tested on: COLO 205
[31] = tested on: SF-268
[32] = tested on: SK-MEL-2
[33] = tested on: SK-OV-3
[34] = tested on: EKVX
[35] = tested on: HCC 2998
[36] = tested on: SF-539
[37] = tested on: HCT-15
[38] = tested on: DLD-1
[39] = tested on: RXF 393
[40] = tested on: NCI-H226
[41] = tested on: CCRF-CEM
[42] = tested on: MCF7
[43] = tested on: SNB-19
[44] = tested on: Malme-3M
[45] = tested on: SW-620
[46] = tested on: KM12
[47] = tested on: A498
[48] = tested on: NCI-H23
[49] = tested on: OVCAR-3
[50] = tested on: LOX IMVI
[51] = tested on: A549
[52] = tested on: HOP-92
[53] = tested on: SK-MEL-28
[54] = tested on: DMS-114
[55] = tested on: ACHN
[56] = tested on: TK-10
[57] = tested on: 786-0
[58] = tested on: M14
[59] = tested on: LXFL 529

Measured: GI50

CCCCCCCCCCCC1CCCC(C)N1 (stereo not given)
38.5 µM: [37]
inactive: [1] 36.4 µM | [2] 61.2 µM | [3] 72.4 µM | [4] 35.9 µM | [5] 10.8 µM | [6] 45.8 µM | [7] 36.7 µM | [8] 19.1 µM | [9] 20.6 µM | [10] 56.2 µM | [11] 43.3 µM | [12] 45.1 µM | [13] 59.3 µM | [14] 43.2 µM | [15] 36.8 µM | [16] 65.2 µM | [17] 15.9 µM | [18] 23.2 µM | [19] 87.9 µM | [20] 29 µM | [21] 47.4 µM | [22] 80 µM | [23] 77.8 µM | [24] 73.3 µM | [25] 61.2 µM | [26] 80 µM | [27] 65.8 µM | [28] 41 µM | [29] 53.1 µM | [30] 36 µM | [31] 67.9 µM | [32] 72.1 µM | [33] 75.2 µM | [34] 47.3 µM | [35] 46.3 µM | [36] 69.8 µM | [38] 24.5 µM | [39] 35.8 µM | [40] 76.9 µM | [41] 23.3 µM | [42] 50 µM | [43] 76.2 µM | [44] 90.4 µM | [45] 58.3 µM | [46] 30.9 µM | [47] 51.5 µM | [48] 61.9 µM | [49] 72.9 µM | [50] 18.2 µM | [51] 88.7 µM | [52] 17.7 µM | [53] 76.6 µM | [54] 56.2 µM

C=CCNC(=S)N/C=C1\C(=O)Oc2ccccc2C1=O
inactive: [1] 43.8 µM | [2] > 100 µM | [4] 65.6 µM | [5] > 100 µM | [6] > 100 µM | [7] 46.3 µM | [8] > 100 µM | [9] > 100 µM | [10] > 100 µM | [12] > 100 µM | [55] 32.1 µM | [56] 64.7 µM | [13] 59.8 µM | [14] 22.2 µM | [15] 49.5 µM | [16] > 100 µM | [17] > 100 µM | [18] > 100 µM | [19] 46.2 µM | [20] > 100 µM | [21] 18.9 µM | [22] 58.5 µM | [23] > 100 µM | [24] 43.9 µM | [25] 41.6 µM | [26] 62.4 µM | [27] 18.7 µM | [57] 55 µM | [28] 27.5 µM | [29] 46.5 µM | [58] 63.4 µM | [30] > 100 µM | [31] 36 µM | [32] 13.2 µM | [59] > 100 µM | [33] 44.4 µM | [34] > 100 µM | [35] 68.4 µM | [36] 55.5 µM | [38] 41.1 µM | [39] 19.3 µM | [40] 28.9 µM | [41] > 100 µM | [43] 59.4 µM | [44] 27.4 µM | [45] 74.6 µM | [46] 87.5 µM | [47] 56.8 µM | [48] > 100 µM | [49] 82 µM | [50] 95.5 µM | [51] 93.8 µM | [52] 30.5 µM | [53] > 100 µM | [54] 35.2 µM
60.5 µM: [37]
